From patent publication US5840716A, “Phosphonate nucleotide compounds” (priority 1996, dated 1998)
Where two headings read alike, the source gives them in different places.

How the values were obtained:
[1] = Cytotoxicity: 50% extinction of HB611 cells; type: cell-based; settings: human, read-out: 50% cytotoxic concentration against HB611 cells
Procedure: (§1) HBV growth inhibitory activities of the compounds of the present invention were measured by a conventional method (K. Ueda, et al., Virology, 169, pp.213-216, 1989). HB611 cells (2×10^4, recombinant human hepatocellular carcinoma cells producing HBV) were cultured in Dulbecco ME medium containing 10% fetal bovine serum, streptomycin (100 μg/ml), penicillin (100 IU/ml), and Geneteicin (trade name, the antibiotic manufactured by Life Technologies, Co., Ltd., 0.2 mg/ml) at 37° C. The medium was changed with fresh medium on the second day and fifth day of the culture, and then the medium was changed with a medium containing a test compound at a final concentration of […] after 8, 11, and 14 days of the culture. Total cellular DNAs were collected on the 17th day of the culture. Amounts of the HBV-DNAs in the cells were measured by the Southern blotting method, and concentrations achieving 50% inhibition of cytoplasmic HBV-DNA synthesis were determined. concentrations of compounds required for 50% extinction of HB611 cells were also determined.

Hepatitis B virus (HBV) [2] = assay: HBV growth inhibition: inhibition of cytoplasmic HBV-DNA synthesis in HB611 cells (Southern blotting); type: cell-based
Procedure: Inhibitory activity against the growth of Hepatitis B virus (HBV)
as §1

[3] = test system: herpes simplex type 1 virus (HSV-1); settings: literature; cited from earlier work
[4] = test system: human hepatitis B virus (HBV); settings: literature; cited from earlier work
[5] = test system: herpes simplex type 2 virus (HSV-2); settings: literature; cited from earlier work
[6] = test system: human immunodeficiency virus (HIV); settings: literature; cited from earlier work
Hepatitis B virus (HBV) [7] = assay: HBV growth inhibitory activity of mouse serum after oral administration (HB611 cells); type: cell-based; settings: serum 5% (V/V) in HB611 cell medium
Procedure: HBV growth inhibitory activity of mouse serum after oral administration
Groups of mice each consisting of three mice were administered orally with a test compound at a single dose of 1 g/kg or 0.3 g/kg. Blood was collected 30 minutes after the administration, and serum was prepared. HB611 cells (2×10^4, recombinant human hepatocellular carcinoma cells producing HBV) were cultured in Dulbecco ME medium containing 10% fetal bovine serum, streptomycin (100 μg/ml), penicillin (100 IU/ml), and Geneteicin (trade name, the antibiotic manufactured by Life Technologies, Co., Ltd., 0.2 mg/ml) at 37° C. The medium was changed with fresh medium on the second day and fifth day of the culture, and then the medium was changed with a medium containing a test serum at a final concentration of 5% (V/V) after 8, 11, and 14 days of the culture. Total cellular DNAs were collected on the 17th day of the culture. Amounts of the HBV-DNAs in the cells were measured by the Southern blotting method, and rates of inhibition of cytoplasmic HBV-DNA synthesis were determined. As a reference, a similar test was carried out using PMEA.

[8] = HB611 cells, compound in medium after 8, 11 and 14 days, DNA collected on 17th day, read-out: 50% inhibitory concentration against HBV-DNA synthesis
[9] = mouse serum 30 minutes after single oral dose of 0.3 g/kg

SMILES: CC(C)(C)C(=O)OCOP(=O)(COCCn1cnc2c(N)ncnc21)OCOC(=O)C(C)(C)C [Reference 1, dipivaloyloxymethyl ester of PMEA]
- CC50 [1]: 11 µM
- IC50 (Hepatitis B virus (HBV) [2]; HB611, read-out: 50% inhibitory concentration against HBV-DNA synthesis): 18800 nM

SMILES: Nc1nc(N)c2ncn(CCOCP(=O)(O)O)c2n1 [PMDAP, 9-(2-phosphonylmethoxy)ethyl-2,6-diaminopurine]
- reported as being effective against HSV-1 [3]: effective
- reported as being effective against HBV [4]: effective
- reported as being effective against HSV-2 [5]: effective
- reported as being effective against HIV [6]: effective

SMILES: COc1cccc(Sc2nc(N)nc3c2ncn3CCOCP(=O)(OCC(F)(F)F)OCC(F)(F)F)c1 [Compound No. 3, 2-amino-9-[2-[bis(2,2,2-trifluoroethyl)-phosphonylmethoxy]ethyl]-6-m-methoxyphenylthiopurine]
- CC50 [1]: > 1000 µM
- IC50 (Hepatitis B virus (HBV) [2]; [8]): 40 nM

SMILES: Cc1ccc(Sc2nc(N)nc3c2ncn3CCOCP(=O)(OCC(F)(F)F)OCC(F)(F)F)cc1 [Reference 2, 9-[2-[bis(2,2,2-trifluoroethyl)phosphonylmethoxy]ethyl]-2-amino-6-p-toluylthiopurine]
- CC50 [1]: 108 µM
- IC50 (Hepatitis B virus (HBV) [2]; [8]): 60 nM

SMILES: COc1ccccc1Sc1nc(N)nc2c1ncn2CCOCP(=O)(OCC(F)(F)F)OCC(F)(F)F [Compound No. 2, 2-amino-9-[2-[bis(2,2,2-trifluoroethyl)-phosphonylmethoxy]ethyl]-6-o-methoxyphenylthiopurine]
- CC50 [1]: > 1000 µM
- IC50 (Hepatitis B virus (HBV) [2]; [8]): 80 nM

SMILES: Nc1nc(Sc2ccccc2)c2ncn(CCOCP(=O)(OCC(F)(F)F)OCC(F)(F)F)c2n1 [Compound No. 1, 2-amino-9-[2-[bis(2,2,2-trifluoroethyl)-phosphonylmethoxy]ethyl]-6-phenylthiopurine]
- CC50 [1]: > 1000 µM
- IC50 (Hepatitis B virus (HBV) [2]; [8]): 10 nM
- Inhibitory rate against HBV-DNA synthesis (Hepatitis B virus (HBV) [7]; [9]): 60.7%

SMILES: COc1ccc(Sc2nc(N)nc3c2ncn3CCOCP(=O)(OCC(F)(F)F)OCC(F)(F)F)cc1 [Compound No. 4, 2-amino-9-[2-[bis(2,2,2-trifluoroethyl)-phosphonylmethoxy]ethyl]-6-p-methoxyphenylthiopurine]
- CC50 [1]: > 1000 µM
- IC50 (Hepatitis B virus (HBV) [2]; [8]): 50 nM
- Inhibitory rate against HBV-DNA synthesis (Hepatitis B virus (HBV) [7]; [9]): 95.2%

SMILES: Nc1ncnc2c1ncn2CCOCP(=O)(O)O [PMEA, 9-(2-phosphonylmethoxy) ethyladenine]
- reported as being effective against HSV-1 [3]: effective
- reported as being effective against HBV [4]: effective
- reported as being effective against HSV-2 [5]: effective
- reported as being effective against HIV [6]: effective
- Inhibitory rate against HBV-DNA synthesis (Hepatitis B virus (HBV) [7]; mouse serum 30 minutes after single oral dose of 1.0 g/kg): 35.5%
